Experiments:
human mu receptor = target: T1, human mu receptor (Homo sapiens, UniProt P35372); assay: Calcium mobilization assay, CHO mu cells expressing Gαqi5; type: cell-based; conditions: for mu α±SEM: intrinsic activity, Emax ratio to standard agonist EM-2, inactive = inactive up to 10 µM
T1 construct: expressed in transfected cells; host or cells: CHO cells stably co-expressing Gαqi5

[1] = target: T2, mu receptor-β-arrestin 2 interaction (Homo sapiens, UniProt P35372); assay: BRET mu-β-arrestin 2 interaction assay (living SH-SY5Y cells, mu-RLuc/β-arrestin 2-RGFP), agonism; conditions: BRET mu-β-arrestin 2; Inactive: Emax < 0.10; analog 6 obtained by forcing the Emax to 1
Description: (§1) SH-SY5Y cells stably co-expressing the fusoproteins mu-RLuc and Gβ1-RGFP or mu-RLuc and β-arrestin 2-RGFP were grown in DMEM/F12 (1:1) medium supplemented with 10% FBS, 2 mM L-Glutamine, 100 μg/mL hygromycin B, 400 μg/mL G418, 100 units/mL penicillin G, 100 μg/mL streptomycin and 1 μg/mL Fungizone at 37°C in a humidified atmosphere with of 5% CO2.
Mu- β-arrestin 2 interaction—Living SH-SY5Y cells expressing mu-RLuc and β-arrestin 2-RGFP were seeded at a cell density of 100,000 cells/well 24 h prior to the test. On the day of the experiment, medium was discarded, and cells were washed with PBS supplemented with 0.5 mM MgCl2, 0.9 mM CaCl2. Cells were subsequently incubated with 2 μM Prolume Purple Coelenterazine (NanoLight Technology, White Mountain, AZ; United States) for 10 min before bioluminescence reading.
(§2) In agonism experiments, ligands were added and incubated for 5 min before microplate reading. […] BRET ratios were computed as follow: RGFPCPS/RLucCPSligand−RGFPCPS/RLucCPSvehicle
(§3) Concentration-response curves to agonists were fitted to the four-parameter logistic non-linear regression model as follows: Effect=Basal+Emax−Basal/1+10^LogEC50−Logligand×HillSlope

delta-opioid receptor [2] = target: T3, delta-opioid receptor (Homo sapiens, UniProt P41143); assay: Calcium mobilization assay, CHO delta cells expressing GαqG66Di5; type: cell-based; parameters: expressed in transfected cells; host or cells: CHO cells co-expressing GαqG66Di5; conditions: for Delta pEC50 (CL95%): calcium mobilization; for Delta pEC50 (CL95%) / Delta α± SEM: inactive = inactive up to 10 µM; for Delta α± SEM: intrinsic activity, Emax ratio to standard agonist DPDPE
[3] = n-Octanol/water partition coefficient (log P); type: physicochemical; conditions: n-octanol / 0.05 M HEPES buffer in 0.1 M NaCl, pH 7.4
Description: Determination of log P was performed according to the method described by ([Liu et al., 2006]). Peptides were dissolved in 0.05 M HEPES buffer in 0.1 M NaCl, pH 7.4, then an equal volume of n-octanol was added and mixtures were vortexed for 2 min. Samples were centrifuged at 4,000 rpm for 1 min. After separation, aqueous and octanol phases were used to quantify peptide content by RP-HPLC.
Octanol phase was lyophilized and reconstituted in 80% acetonitrile in water containing 0.1% TFA before RP-HPLC. All n-octanol/buffer distribution studies were performed in triplicate.

[4] = Enzymatic degradation in rat brain homogenate; type: in vitro ADME; conditions: 37°C; for 100 x k, rate constant of degradation: up to 60 min; for half-life at 0.25 mM: rat, pH 7.4, rat brain homogenate, read-out: t1/2, degradation half-life
Description: Enzymatic degradation of EM-2 and the analogs was performed measuring their hydrolysis rates in the presence of rat brain homogenate. The homogenate was prepared prior to the experiment. Briefly, rat brains were homogenized in 20 volumes of Tris–HCl (50 mM, pH 7.4) using a Polytron and the obtained aliquots were stored at −80°C. In the experiment, aliquotes of brain homogenate (100 μL, 10 mg protein/mL) were incubated with 100 µL of a peptide (0.5 mM) over 0, 7.5; 15, 22.5; 30, and 60 min at 37°C, in a final volume of 200 µL. After the incubation the degradation reaction was stopped by placing the tube on ice and acidifying the content with 20 µL of HCl (1 M). The aliquots were centrifuged at 20,000 g for 10 min at 4°C. The supernatants were collected and filtered using Millex-GV syringe filters (Millipore). Then the analysis by HPLC on a Vydac C18 column (5 μm, 4.6 × 250 mm), using the solvent system of 0.1% TFA in water (A) and 80% acetonitrile in water containing 0.1% TFA (B) and a linear gradient of 0%–100% B over 25 min, was performed. Three independent experiments for each assay were carried out in duplicate. The rate constants of degradation (k) were obtained by the least square linear regression analysis of logarithmic peak areas [ln (A/AD)], where A—amount of remained peptide, AD—initial amount of peptide versus time. Degradation half-lives (t1/2) were calculated from the rate constants as ln2/k.

[5] = target: T4, human recombinant kappa opioid receptor (Homo sapiens, UniProt P41145); assay: Radioligand binding, [3H]U-69593 displacement, CHO cell membranes
T4 construct: purchased; host or cells: CHO cells (membranes)

[6] = target: mu receptor-G protein interaction (Homo sapiens, UniProt P35372); assay: BRET mu-G protein interaction assay (membranes of SH-SY5Y cells, mu-RLuc/Gβ1-RGFP)
Description: as §1
Total protein in membrane preparations was determined by colorimetric method with the Quantum Protein-BCA kit (EuroClone, Pero (MI), IT) and measured using the multiplate reader Victor Nivo (PerkinElmer, Walthman, MA, United States). White opaque 96 wells microplates (PerkinElmer, Walthman, MA, United States) were used to carry out BRET assays. Cell membranes were thawed and resuspended in PBS supplemented with 0.02% BSA before the assay, and an amount of 5 μg of total protein was dispensed in each 96 well. All experiments were carried out at room temperature.
as §2, §3

[7] = target: T5, human recombinant mu opioid receptor (Homo sapiens, UniProt P35372); assay: Radioligand binding, [3H]DAMGO displacement, CHO cell membranes
T5 construct: purchased; host or cells: CHO cells (membranes)

[8] = target: T2, mu receptor-β-arrestin 2 interaction; assay: cell-based; parameters: expressed in transfected cells; conditions: read-out: pKb (CL95%) (converted)
Description: In antagonism experiments, a 10 min preincubation with vehicle or fixed concentrations of ligand preceded the injection of increasing concentrations of EM-2.
Antagonist potencies (pKb) were computed applying the following equation: pKb = (log (CR − 1)) − log [Anta] with CR as the ratio between agonist potency (molar) in the presence and absence of antagonist and [Anta] is the molar concentration of antagonist. pKb represents the concentration of antagonist that occupies half of the receptor population at equilibrium, expressed in molar units.

delta-opioid receptor [9] = target: T3, delta-opioid receptor; assay: Radioligand binding, [3H]deltorphin-2 displacement, CHO cell membranes; parameters: purchased; host or cells: CHO cells (membranes)
human kappa receptor = target: T6, human kappa receptor (Homo sapiens, UniProt P41145); assay: Calcium mobilization assay, CHO kappa cells expressing Gαqi5; type: cell-based; conditions: inactive = inactive up to 10 µM; for Kappa pEC50 (CL95%): calcium mobilization; for Kappa α± SEM: intrinsic activity, Emax ratio to standard agonist dynorphin A
T6 construct: expressed in transfected cells; host or cells: CHO cells stably co-expressing Gαqi5

[10] = ref Bergese et al., 2019, cited from earlier work

T2 sequence (P35372 whole entry): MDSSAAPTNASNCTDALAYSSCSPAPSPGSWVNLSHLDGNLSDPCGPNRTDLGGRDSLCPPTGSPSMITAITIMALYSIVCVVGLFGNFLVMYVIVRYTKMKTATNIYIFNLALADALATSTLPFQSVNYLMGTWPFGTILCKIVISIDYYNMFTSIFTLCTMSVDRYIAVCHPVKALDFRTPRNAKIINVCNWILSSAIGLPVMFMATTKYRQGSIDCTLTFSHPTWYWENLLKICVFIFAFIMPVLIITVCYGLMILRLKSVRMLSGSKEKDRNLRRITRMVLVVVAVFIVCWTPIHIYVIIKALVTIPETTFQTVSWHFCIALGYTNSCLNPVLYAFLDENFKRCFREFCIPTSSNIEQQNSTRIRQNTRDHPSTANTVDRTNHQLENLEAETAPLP
T1 sequence (P35372 whole entry): as above
T3 sequence (P41143 whole entry): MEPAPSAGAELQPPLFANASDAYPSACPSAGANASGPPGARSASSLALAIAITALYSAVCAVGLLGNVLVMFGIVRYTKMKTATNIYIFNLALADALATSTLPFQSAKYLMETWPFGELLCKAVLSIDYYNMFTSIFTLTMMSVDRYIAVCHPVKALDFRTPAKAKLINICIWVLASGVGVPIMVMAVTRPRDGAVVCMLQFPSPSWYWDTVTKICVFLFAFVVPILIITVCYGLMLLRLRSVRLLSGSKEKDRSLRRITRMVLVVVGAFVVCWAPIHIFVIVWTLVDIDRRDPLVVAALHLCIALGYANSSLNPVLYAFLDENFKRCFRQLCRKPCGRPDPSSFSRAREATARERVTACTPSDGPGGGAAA
T4 sequence (P41145 whole entry): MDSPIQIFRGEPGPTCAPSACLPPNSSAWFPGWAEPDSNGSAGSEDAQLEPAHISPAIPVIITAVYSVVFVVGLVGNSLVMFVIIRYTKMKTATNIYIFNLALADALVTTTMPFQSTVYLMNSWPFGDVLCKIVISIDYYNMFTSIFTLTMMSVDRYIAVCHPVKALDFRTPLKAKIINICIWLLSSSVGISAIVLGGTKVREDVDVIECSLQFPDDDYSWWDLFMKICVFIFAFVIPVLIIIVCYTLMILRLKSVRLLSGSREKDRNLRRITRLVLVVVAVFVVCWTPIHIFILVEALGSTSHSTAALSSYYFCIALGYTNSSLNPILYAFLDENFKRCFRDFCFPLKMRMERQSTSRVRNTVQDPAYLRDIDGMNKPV
T6 sequence (P41145 whole entry): as above
mu receptor-G protein interaction, sequence (P62871 whole entry): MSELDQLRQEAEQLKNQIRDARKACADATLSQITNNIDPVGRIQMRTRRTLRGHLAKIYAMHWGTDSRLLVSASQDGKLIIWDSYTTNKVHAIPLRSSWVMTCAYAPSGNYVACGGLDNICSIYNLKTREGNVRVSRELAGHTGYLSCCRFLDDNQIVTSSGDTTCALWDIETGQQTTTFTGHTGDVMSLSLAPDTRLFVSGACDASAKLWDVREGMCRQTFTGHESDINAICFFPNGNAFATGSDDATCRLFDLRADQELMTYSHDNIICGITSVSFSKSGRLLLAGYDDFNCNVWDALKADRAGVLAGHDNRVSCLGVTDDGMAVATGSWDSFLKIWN
mu receptor-G protein interaction, sequence (P35372 whole entry): as the sequence (P35372 whole entry) above
T5 sequence (P35372 whole entry): as above

Structure (SMILES)	EC50 (human mu receptor) [nM]	mu α±SEM (human mu receptor)	β-Arrestin 2 pEC50 (CL95%) [1]	Delta pEC50 (CL95%) (delta-opioid receptor [2])	Delta α± SEM (delta-opioid receptor [2])	logD [3]	100 x k, rate constant of degradation [4] [per min]	half-life at 0.25 mM ([4]; ln2/k) [h]	Ki [5] [nM]	EC50 [6] [nM]	Ki [7] [nM]	Kb [8] [nM]	Ki (delta-opioid receptor [9]) [nM]	Kappa pEC50 (CL95%) (human kappa receptor)	Kappa α± SEM (human kappa receptor)	EC50 (delta-opioid receptor [2]) [nM]	t1/2, degradation half-life ([4]; ln2/k) [h]	patients with lack of efficacy ([10]; moderate to severe acute pain in adults)	patients who experienced some adverse effects (vomiting, nausea, headache, or constipation) [10] [%]
NC(=O)[C@H](Cc1ccccc1)NC(=O)[C@H](Cc1ccccc1)NC(=O)[C@H]1CCCCN1C(=O)[C@@H](N)Cc1ccc(O)cc1 [analog 2, Tyr-(R)-Pip-Phe-Phe-NH2]	58.9	0.64 ± 0.04	Inactive	inactive	inactive	2.3	0.57 ± 0.08	2.02 ± 0.0517	> 1000	38	17.7 ± 1.14	170	682 ± 33	inactive	inactive				
Cc1cc(O)cc(C)c1C[C@H](N)C(=O)N1CCCC[C@@H]1C(=O)N[C@@H](Cc1ccccc1)C(=O)N[C@@H](Cc1ccccc1)C(N)=O [analog 3, Dmt-(R)-Pip-Phe-Phe-NH2]	1.51	0.70 ± 0.03	Inactive		0.56 ± 0.05	2.49	0.73 ± 0.07	1.57 ± 0.0467	72 ± 6	1.91	3.92 ± 0.5	0.0794	37 ± 5	inactive	inactive	148			
NC(=O)[C@H](Cc1ccccc1)NC(=O)[C@@H](CNC(=O)[C@@H]1CCCN1C(=O)[C@@H](N)Cc1ccc(O)cc1)Cc1cccc2ccccc12 [analog 10, Tyr-Pro-(R)-β ^ 2 -1-Nal-Phe-NH2]		0.25 ± 0.06	Inactive	inactive	inactive	2.5	0.41 ± 0.02	2.8	> 1000	105		631	> 1000	inactive	inactive		2.805 ± 0.0917		
Cc1cc(O)cc(C)c1C[C@H](N)C(=O)N1CCC[C@H]1C(=O)NC[C@@H](Cc1cccc2ccccc12)C(=O)N[C@@H](Cc1ccccc1)C(N)=O [analog 11, Dmt-Pro-(R)-β ^ 2 -1-Nal-Phe-NH2]	9.77	0.57 ± 0.05	Inactive	inactive	inactive	2.71	0.56 ± 0.02	2.05 ± 0.0983	> 1000	4.9		0.398		inactive	inactive				
COc1ccsc1CNCC[C@@]1(c2ccccn2)CCOC2(CCCC2)C1 [oliceridine, [(3-methoxythiophen-2-yl)methyl]({2-[(9R)-9-(pyridin-2-yl)-6-oxaspiro-[4.5]decan-9-yl]ethyl})amine]																		less than 5%	64
